Patent publication US20090060861A1, “Stabilized Polypeptide Formulations” (NOVO Nordisk A/S, priority 2005, published 2009)
Like-named read-outs stand apart in the source and are kept apart here.

Key:
[1] = biological target: human insulin (Homo sapiens, UniProt P01308)
[2] = biological target: T1, insulin aspart (Asp^B28 human insulin) (Homo sapiens, UniProt P01308, P52D)
[3] = biological target: T1, insulin aspart (Asp^B28 human insulin); conditions: pH 7.4
Procedure: Compositions comprising the buffer components covered by the present invention were prepared according to the above-mentioned and a reference composition containing 7 mM sodium phosphate as buffer component was prepared in parallel.

[4] = biological target: T1, insulin aspart (Asp^B28 human insulin); test: Chemical stability of the polypeptide, degradation products formed during storage; conditions: insulin aspart compositions, 1-100 mM buffer; 3 months storage at 5° C. or 37° C.; data not shown
[5] = human insulin, 6.7 mM buffer, n=12
[6] = insulin aspart 600 nmol/mL, 1-100 mM buffer, 37° C., shake 1200 rpm, n=12

T1 sequence (P01308 25-54 P52D): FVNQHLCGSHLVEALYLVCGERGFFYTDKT
T1 sequence (P01308 90-110): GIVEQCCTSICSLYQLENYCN
Sequence of human insulin (P01308 25-54 limits assumed): as the sequence (P01308 25-54 P52D) above, with D28P counted along it

Compound | polypeptide stability (physical stability, ThT lag-time) compared to compositions comprising phosphate buffer [1, 5] | impact on chemical stability of the polypeptide (amount of degradation products formed) [2] | polypeptide stability (physical stability, ThT lag-time) compared to compositions comprising phosphate buffer (7 mM) [3, 6] | impact on chemical stability of the polypeptide (amount of degradation products formed) [4] | polypeptide stability (physical stability, ThT lag-time) compared to compositions comprising phosphate buffer [1] | polypeptide stability (physical stability, ThT lag-time) compared to compositions comprising phosphate buffer (7 mM) [3]
CC[N+](CC)(CC)CC.[Cl-] [T.E.A. chloride, tetraethylammonium chloride] | increased | No significant impact | increased |  |  | 
CC(N)(CO)CO [AMPD, 2-amino-2-methyl-1,3-propanediol] | increased |  | increased | No significant impact |  | 
O=C(O)c1ccc(C(=O)O)c(C(=O)O)c1 [trimellitic acid, 1,2,4-benzenetricarboxylic acid] | increased |  | increased | No significant impact |  | 
CCC(CC)(C(=O)O)C(=O)O [diethylmalonic acid, diethylpropanedioic acid] | increased |  | increased | No significant impact |  | 
Cl.NCC(N)=O [glycinamid hydrochloride] |  |  |  | No significant impact | increased | increased
